Measured values taken from article PMC4506051, “Pharmacokinetic Profiles of Active Ingredients and Its Metabolites Derived from Rikkunshito, a Ghrelin Enhancer, in Healthy Japanese Volunteers: A Cross-Over, Randomized Study” (PLoS ONE, 2015).

Key:
[1] = Stability of ingredients in gastric pH solution (pH 1.2, 37°C); type: physicochemical
Method: Rikkunshito gradually dissolved in acidic solution (pH 1.2) at 37°C, and the concentration of atractylodin after adding 0.25, 0.5, 1, and 2 h was measured by gas chromatography–mass spectrometry.

[2] = Exploratory trial: amount of rikkunshito ingredients in urine; type: in vivo, human
Method: (§1) In the first exploratory trial, 20-mL blood samples were collected from the cutaneous vein in the subjects’ forearm via a blood sampling tube that contained heparin at 0 (preadministration), 0.5, 1, 2, 4, and 8 h after a single oral administration of rikkunshito (Lot E24652). The dose of rikkunshito used in this trial was 7.5 g/day, which is the clinical daily dose, to widely explore rikkunshito-derived ingredients that enter the blood. Along with plasma, urine samples were collected at three points: between dinner and bedtime (preadministration), between 0 and 4 h after administration, and between 4 and 8 h after administration. The blood was immediately centrifuged at 1700 ×g for 10 min to obtain plasma. Plasma and urine fractions were stored at −80°C or lower until analysis.
(§2) For quantification of synephrine, 5 µL of standard solution or methanol was added to 100 µL plasma or urine samples followed by mixing. Ten microliters of erythromycin [internal standard (IS)] solution was added to the solutions followed by mixing and centrifugation (20,400 ×g, 5 min, 4°C). The supernatants were loaded onto an Ostro 96-well plate (Waters) and centrifuged (1500 ×g, 3 min, 4°C) followed by injection into the LC–MS/MS.
(§3) For quantification of 30 ingredients other than atractylodin and synephrine, 25 µL of standard solution or methanol was added to 500 µL plasma or urine samples followed by mixing. Atractylenolide III or digoxin (IS) solution (50 μL) was added to the solutions followed by mixing. For urine, 400 µL of blank plasma was added to the solutions. Ammonium acetate solution (100 mM, 100 or 400 µL) was added to the solutions followed by mixing. For enzymatic treatment, plasma and urine samples were incubated with β-glucuronidase (100 units in 100 mM ammonium acetate) for 2 h at 37°C. A solid-phase cartridge (OASIS HLB, 30 mg/1cc, Waters) was conditioned with methanol and 10 mM ammonium acetate solution, and the samples were loaded onto the cartridge. The cartridge was washed water : methanol (9:1, v/v), and 1.5 mL of methanol and 30 µL of propylene glycol were added to the cartridge to elute the analytes. The mixtures were dried at 25°C under a stream of nitrogen gas. Furthermore, 100 μL of 10 mM ammonium acetate : methanol (8:2, v/v) was added to the dried samples followed by mixing and sonication. The solutions were filtered (0.22 µm) and followed by injection into the LC–MS/MS system. […] Those analytical conditions are summarized in S2 Table and S3 Table.

[3] = Exploratory trial: ingredients in β-glucuronidase (enzyme)-treated urine; type: in vivo, human
Method: as §1, §3

[4] = Exploratory trial: ingredients in β-glucuronidase (enzyme)-treated plasma; type: in vivo, human; conditions: β-glucuronidase-treated, rikkunshito 7.5 g, mean ± S.D., n = 4
Method: as §1, §3

[5] = Exploratory trial: plasma concentration of rikkunshito ingredients after single oral rikkunshito 7.5 g; type: in vivo; conditions: for Plasma concentration, 0 h: 0 h (preadministration), single oral rikkunshito 7.5 g; for Plasma concentration, 4 h: 4 h after single oral rikkunshito 7.5 g; for Plasma concentration, 8 h: 8 h after single oral rikkunshito 7.5 g
Method: A random sequence was generated using a computer. The safety endpoint was evaluated in all volunteers.
as §1, §2, §3

[6] = Method validation: stability in standard, stock and working solution; conditions: IS 2000 ng/mL
[7] = rikkunshito in acidic solution (pH 1.2) at 37°C, 0.5 h
[8] = rikkunshito in acidic solution (pH 1.2) at 37°C, 1 h
[9] = rikkunshito in acidic solution (pH 1.2) at 37°C, 2 h
[10] = 0–4 h after single oral rikkunshito 7.5 g, mean ± S.D., n = 4
[11] = 4–8 h after single oral rikkunshito 7.5 g, mean ± S.D., n = 4
[12] = preadministration (between dinner and bedtime), mean ± S.D., n = 4
[13] = β-glucuronidase-treated, 0–4 h after rikkunshito 7.5 g, mean ± S.D., n = 4
[14] = β-glucuronidase-treated, 4–8 h after rikkunshito 7.5 g, mean ± S.D., n = 4
[15] = β-glucuronidase-treated, preadministration, mean ± S.D., n = 4

| Compound | Stability in gastric pH solution, Quantitative value [1, 7] [ng/mL] | Stability in gastric pH solution, Quantitative value [1, 8] [ng/mL] | Stability in gastric pH solution, Quantitative value [1, 9] [ng/mL] | Amount in urine, 0–4 h [2, 10] [ng] | Amount in urine, 4–8 h [2, 11] | Amount in urine, Pre [2, 12] | Stability in gastric pH solution, Quantitative value ([1]; 0.5 h, pH 1.2) [ng/mL] | Stability in gastric pH solution, Quantitative value ([1]; 1 h, pH 1.2) [ng/mL] | Stability in gastric pH solution, Quantitative value ([1]; 2 h, pH 1.2) [ng/mL] | Amount in enzyme-treated urine, 0–4 h [3, 13] [ng] | Amount in enzyme-treated urine, 4–8 h [3, 14] | Amount in enzyme-treated urine, Pre [3, 15] [ng] | also measured |
| --- | --- | --- | --- | --- | --- | --- | --- | --- | --- | --- | --- | --- | --- |
| CC(C)=CCC[C@](C)(O)[C@H]1CC[C@]2(C)[C@@H]1[C@H](O)C[C@@H]1[C@@]3(C)CC[C@H](O)C(C)(C)[C@@H]3[C@@H](O[C@@H]3O[C@H](CO)[C@@H](O)[C@H](O)[C@H]3O[C@@H]3O[C@H](CO)[C@@H](O)[C@H](O)[C@H]3O)C[C@]12C [Ginsenoside Rf] | 190 | 159 | 113 | 48.2 ± 64.4 | 23.0 ± 20.4 ng | BQL |  |  |  |  |  |  |  |
| CC(C)=CCC[C@](C)(O[C@@H]1O[C@H](CO)[C@@H](O)[C@H](O)[C@H]1O)[C@H]1CC[C@]2(C)[C@@H]1[C@H](O)C[C@@H]1[C@@]3(C)CC[C@H](O)C(C)(C)[C@@H]3[C@@H](O[C@@H]3O[C@H](CO)[C@@H](O)[C@H](O)[C@H]3O)C[C@]12C [Ginsenoside Rg1] |  |  |  | 620 ± 331 | 638 ± 319 ng | BQL | 174 | 118 | 41.6 |  |  |  |  |
| COc1c(CC=C(C)C)c(O)cc2oc(=O)c(-c3ccc(O)cc3O)cc12 [Glycycoumarin] |  |  |  | 2300 ± 1150 | 1600 ± 886 ng | 4.61 ± 4.20 ng | 5.58 | 7.09 | 5.09 | 7010 ± 2840 | 3260 ± 1580 ng | 22.8 ± 19.7 | concentration at 0.5 h ([4]; human, plasma, oral, 0.5 h): 2.34 ng/mL; concentration at 1 h ([4]; human, plasma, oral, 1 h): 0.987 ± 0.36 ng/mL; concentration at 2 h ([4]; human, plasma, oral, 2 h, read-out: Plasma concentration in enzyme-treated plasma, 2 h): 0.328 ± 0.183 ng/mL; concentration at 4 h ([4]; human, plasma, oral, 4 h, read-out: Plasma concentration in enzyme-treated plasma, 4 h): 0.371 ± 0.113 ng/mL; concentration at 8 h ([4]; human, plasma, oral, 8 h, read-out: Plasma concentration in enzyme-treated plasma, 8 h): 0.222 ± 0.134 ng/mL; Plasma concentration in enzyme-treated plasma, 0 h ([4]; 0 h (preadministration)): BQL; Plasma concentration in enzyme-treated plasma, 0.5 h ([4]; 0.5 h): 2.34 ± 0.848 ng/mL; Plasma concentration, 0 h ([5]; mean ± S.D., n = 4): BQL; Plasma concentration, 4 h ([5]; mean ± S.D., n = 4): BQL; Plasma concentration, 8 h ([5]; mean ± S.D., n = 4): BQL; Plasma concentration of unchanged form before enzyme treatment ([5]; detected in only one subject, at any time point): approximately 30 pg/ml; concentration at 0.5 h ([5]; human, plasma, 0.5 h after single oral rikkunshito 7.5 g, mean ± S.D., n = 4, read-out: Plasma concentration, 0.5 h): 0.00923 ± 0.0185 ng/mL; concentration at 1 h ([5]; human, plasma, 1 h after single oral rikkunshito 7.5 g, mean ± S.D., n = 4): 0.00715 ± 0.0143 ng/mL; concentration at 2 h ([5]; human, plasma, 2 h after single oral rikkunshito 7.5 g, mean ± S.D., n = 4, read-out: Plasma concentration, 2 h): 0.00693 ± 0.0139 ng/mL |
| C=C1CCC[C@]2(C)C[C@]3(O)OC(=O)C(C)=C3C[C@@H]12 [IS, Atractylenolide III, reference compound] |  |  |  |  |  |  |  |  |  |  |  |  | Short-term stability of standard solution, RR ([6]; at room temperature for 24 h): IS: 100.0%; Long-term stability of standard solution, RR ([6]; refrigerator (0.5°C to 7.4°C) for 4 weeks): IS: 93.4% |
| CNCC(O)c1ccc(O)cc1 (stereo not shown) [Synephrine] | 3200 | 3180 | 2960 | 2150 ± 296 | 798 ± 282 ng | 24.2 ± 28.8 ng |  |  |  |  |  |  | Plasma concentration, 0 h ([5]; mean ± S.D., n = 4): BQL; Plasma concentration, 0.5 h ([5]; 0.5 h after single oral rikkunshito 7.5 g, mean ± S.D., n = 4): 0.029 ± 0.058 ng/mL; Plasma concentration, 1 h ([5]; 1 h after single oral rikkunshito 7.5 g, mean ± S.D., n = 4): BQL; Plasma concentration, 2 h ([5]; 2 h after single oral rikkunshito 7.5 g, mean ± S.D., n = 4): BQL; Plasma concentration, 4 h ([5]; mean ± S.D., n = 4): BQL; Plasma concentration, 8 h ([5]; mean ± S.D., n = 4): BQL |
| CCCCC[C@H](O)CC(=O)CCc1ccc(O)c(OC)c1 [[6]-Gingerol, [6]-Gingerol] |  |  |  |  |  |  | 152 | 154 | 149 |  |  |  | Amount in enzyme-treated urine, 0–4 h ([3]; human, in vivo): 8170 ± 5630 ng; Amount in enzyme-treated urine, 4–8 h ([3]; human, in vivo): 821 ± 654 ng; Amount in enzyme-treated urine, Pre ([3]; human, in vivo): 278 ± 261 ng; Increase of urine concentration after β-glucuronidase treatment compared with before treatment ([3]; human, in vivo): more than 10 fold; Amount in urine, Pre ([2]; human, in vivo): 18.6 ± 26.2 ng; Amount in urine, 0–4 h ([2]; human, in vivo, po): 602 ± 552 ng; Amount in urine, 4–8 h ([2]; human, in vivo, po): 35.0 ± 57.1 ng |
| CCCCC/C=C/C(=O)CCc1ccc(O)c(OC)c1 [[6]-Shogaol, [6]-Shogaol] | 17.9 | 18.5 | 17.9 | 459 ± 283 | 15.4 ± 30.7 ng | 16.3 ± 26.4 ng |  |  |  | 4980 ± 1480 | 392 ± 310 ng | 109 ± 160 | Increase of urine concentration after β-glucuronidase treatment compared with before treatment ([3]; rikkunshito 7.5 g): more than 10 fold |
| CCCCCCC[C@H](O)CC(=O)CCc1ccc(O)c(OC)c1 [[8]-Gingerol, [8]-Gingerol] |  |  |  | 8.97 ± 17.9 | BQL | BQL |  |  |  | 49.5 ± 78.3 | BQL | 2.73 ± 5.46 |  |
| CCCCCCC/C=C/C(=O)CCc1ccc(O)c(OC)c1 [[8]-Shogaol, [8]-Shogaol] | 2.00 | 1.89 | 1.83 | 9.00 ± 18.0 | BQL | BQL |  |  |  | 239 ± 62.5 | BQL | 3.73 ± 7.46 | Increase of urine concentration after β-glucuronidase treatment compared with before treatment ([3]; rikkunshito 7.5 g): more than 10 fold |
